Common to all, as to assay: ITC
What all share (conditions): 500 mM NaCl, 20 mM MgCl2; 50 mM Tris pH 7.6, 25 °C

For test [1], the system named is 1301b_v1 (DNA, aptamer) CGACGTTTGCGATGAGAACGAAGTTCGAAGGTCG
Test [2] has as its system wild-type 1301b (DNA, aptamer) ACGACGTTTGCGATGAGAAACGTATGGTTTCGAAGGTCGT
Test [3] relates to 9/10/14/16^OMe (DNA, aptamer, 2'-O-methyl at G9, C10, G14, G16) CGACGTTTGCGATGAGAACGAAGTTCGAAGGTCG

`Cc1cn([C@H]2C[C@H](O)[C@@H](COP(=O)(O)OP(=O)(O)OP(=O)(O)O)O2)c(=O)[nH]c1=O`: the binding result in test [1] is “no”.
With `Nc1ccn([C@@H]2O[C@H](COP(=O)(O)OP(=O)(O)OP(=O)(O)O)[C@@H](O)[C@H]2O)c(=O)n1`, the binding entry in test [1] is “no”.
On to `Nc1nc2c(ncn2[C@@H]2O[C@H](COP(=O)(O)OP(=O)(O)OP(=O)(O)O)[C@@H](O)[C@H]2O)c(=O)[nH]1`, for which the binding result in test [1] is “no”.
Consider `Nc1ncnc2c1ncn2[C@@H]1O[C@H](COP(=O)(O)O)[C@@H](O)[C@H]1O`, for which the KD (as a rule, the equilibrium constant for the complex coming apart) in test [1] is 13.2 ± 2.4 µM.
For `Nc1ncnc2c1ncn2[C@@H]1O[C@H](COP(=O)(O)OP(=O)(O)O)[C@@H](O)[C@H]1O`, the KD in test [1] is 4.4 ± 0.3 µM.
As to `Nc1ncnc2c1ncn2[C@@H]1O[C@H](COP(=O)(O)OP(=O)(O)OP(=O)(O)O)[C@@H](O)[C@H]1O`, the KD came to 2.7 ± 0.6 µM in test [2], 1.9 ± 0.1 µM in test [1] and 3.8 ± 0.4 µM in test [3].
As for `Nc1ncnc2c1ncn2[C@H]1C[C@H](O)[C@@H](COP(=O)(O)OP(=O)(O)OP(=O)(O)O)O1`, in test [1], the dissociation constant (KD) was 3.4 ± 0.2 µM.
For the compound `O=c1ccn([C@@H]2O[C@H](COP(=O)(O)OP(=O)(O)OP(=O)(O)O)[C@@H](O)[C@H]2O)c(=O)[nH]1`, in test [1], the binding entry is “no”.

The values above are taken from paper PMC12377721 (2025).
